Data: the Deep4Chem optical property database

Assay: solvent given as SMILES

Molecule `c1ccc(N2c3ccc4ccccc4c3-c3c4ccccc4cc[n+]3[B-]2(c2ccccc2)c2ccccc2)cc1` has an emission maximum (in Cc1ccccc1) of 623 nm.
With `CC(C)(C)c1cccc2c(O)cccc12` the emission maximum (in O) was 367 nm.
With `F[B-]1(F)n2c(cc3oc(-c4ccccc4)cc32)C=C2C=c3oc(-c4ccccc4)cc3=[N+]21` the emission maximum (in ClC(Cl)Cl) was 661 nm.
`CC1(C)C(/C=C/C2=C(c3ccc(C(=O)O)cc3)C(=C/C=C3/N(CCCCS(=O)(=O)[O-])c4ccccc4C3(C)C)/CC2)=[N+](CCCCS(=O)(=O)[O-])c2ccccc21` showed an emission maximum (in CO) of 816 nm.
For `Fc1ccc(-c2cc3ccc4cc(-c5ccc(F)cc5)cc5ccc(c2)c3c45)cc1`, the emission maximum (in C1CCCCC1) was 413.38 nm, the emission maximum (in C1CCOC1) was 411.8 nm and the emission maximum (in CC#N) was 408.05 nm. The emission maximum (in CCCCCC) was 411.8 nm, the emission maximum (in CCO) was 408.84 nm and the emission maximum (in CN(C)C=O) was 409.82 nm. It also gave an emission maximum (in CO) of 408.05 nm, an emission maximum (in ClC(Cl)Cl) of 410.54 nm and an emission maximum (in ClCCl) of 409.82 nm.
`C(=C\c1c[nH]c2ccc(Oc3ccccc3)cc12)/C1=[NH+]c2cccc3cccc1c23` gave an emission maximum (in CO) of 584 nm.
Work on `c1cc2ccc1-c1ccc(cc1)-c1ccc([se]1)-c1ccc(cc1)-c1ccc(cc1)-c1ccc([se]1)-c1ccc(cc1)-c1ccc(cc1)-c1ccc-2[se]1` yielded an emission maximum (in C1CCOC1) of 560 nm.
Work on `CCOC(=O)c1ccc(O)c(-c2[nH]c(=O)n3c2-c2ccccc2C3=O)c1` yielded an emission maximum (in CC#N) of 476 nm, an emission maximum (in CO) of 490 nm and an emission maximum (in ClCCl) of 474 nm.
`C1=Cc2ccccc2C(=Cc2ccc(C=C3c4ccccc4C=Cc4ccccc43)cc2)c2ccccc21` gave an emission maximum (in C1CCOC1) of 405 nm.
Work on `Cc1ccc2c(c1)B(c1c(C(C)C)cc(C(C)C)cc1C(C)C)c1cc(C)cc3c1N2c1ccc(C)cc1B3c1c(C(C)C)cc(C(C)C)cc1C(C)C` yielded an emission maximum (in ClCCl) of 482 nm.
With `CCCCCCN1C(=O)c2cccc3c(-c4ccc(-c5ccc(-c6ccc7c8c(cccc68)C(=O)N(CCCCCC)C7=O)s5)s4)ccc(c23)C1=O` the emission maximum (in ClC(Cl)Cl) was 542 nm.
`Cc1cc(C)c(B(c2ccc(-c3nc4c5ccccc5c5ccccc5c4[nH]3)cc2)c2c(C)cc(C)cc2C)c(C)c1` gave an emission maximum (in C1CCOC1) of 456 nm, an emission maximum (in CC(C)=O) of 469 nm and an emission maximum (in CS(C)=O) of 484 nm. It also gave an emission maximum (in Cc1ccccc1) of 435 nm and an emission maximum (in ClCCl) of 454 nm.
In the case of `CC(C)(C)c1ccc(N(c2ccc(C(C)(C)C)cc2)c2cc(N(c3ccc(C(C)(C)C)cc3)c3ccc(C(C)(C)C)cc3)c3ccc4cc(C(C)(C)C)cc5ccc2c3c54)cc1`, the emission maximum (in ClCCl) is reported as 491 nm.
Work on `CCCCc1ccc2c(c1)c1ccc3cccc4c3c1c1c2c2cccc3ccc5c6cc(CCCC)ccc6c4c1c5c32` yielded an emission maximum (in ClCCl) of 506 nm.
Work on `CCn1c2ccccc2c2cc(/C=C/c3cccc(/C=C/c4ccc5c(c4)c4ccccc4n5CC)[n+]3CCCS(=O)(=O)[O-])ccc21` yielded an emission maximum (in C1CCOC1) of 581 nm, an emission maximum (in CC#N) of 579 nm and an emission maximum (in CC(C)=O) of 578 nm. It also gave an emission maximum (in Cc1ccccc1) of 598 nm.
`CC(C)c1cccc(C(C)C)c1-n1c(=O)c2ccc3c4ccc5c(=O)n(-c6c(C(C)C)cccc6C(C)C)c(=O)c6cc7c(-c8ccccn8)nc8cc(c1=O)c2c3c8c7c4c56` gave an emission maximum (in ClC(Cl)Cl) of 485 nm.
With `CSc1sc(C(=O)c2ccccc2)c2nn[nH]c(=O)c12` the emission maximum (in C1CCOC1) was 482 nm, the emission maximum (in CC#N) was 485 nm and the emission maximum (in CCO) was 489 nm. It also gave an emission maximum (in CN(C)C=O) of 492 nm, an emission maximum (in CO) of 495 nm and an emission maximum (in CS(C)=O) of 497 nm.
In the case of `CCCCn1c(=O)c2cc3ccc4cccc5ccc(c2c1=O)c3c45`, the emission maximum (in ClC(Cl)Cl) is reported as 460 nm.
For `Cc1cc2c(cc1C)NC(=O)CC(=O)N2`, the emission maximum (in CS(C)=O) was 349 nm.
`Cc1ccc(-n2c(-c3ccc(N(c4ccc(-c5ccc(N(c6ccc(-c7nc8c9ccccc9c9ccccc9c8n7-c7ccc(C)cc7)cc6)c6ccc(-c7nc8c9ccccc9c9ccccc9c8n7-c7ccc(C)cc7)cc6)cc5)cc4)c4ccc(-c5nc6c7ccccc7c7ccccc7c6n5-c5ccc(C)cc5)cc4)cc3)nc3c4ccccc4c4ccccc4c32)cc1` showed an emission maximum (in ClCCl) of 435 nm.
`CC1=CC(C)=[N+]2C1=C(c1ccc(N3CCOCC3)cc1)c1c(C)cc(C)n1[B-]2(F)F` showed an emission maximum (in C1CCOC1) of 514 nm, an emission maximum (in CC#N) of 511 nm and an emission maximum (in CC(=O)C(C)(C)C) of 520 nm. The emission maximum (in CC(C)=O) was 516 nm, the emission maximum (in CCCCCC) was 511 nm and the emission maximum (in CCOC(C)=O) was 517 nm. For the same molecule, the emission maximum (in CO) was 514 nm.
Molecule `COC(=O)c1cc(=O)n(C)c2cc(-c3cc4c5c(c3)CCCN5CCC4)sc12` has an emission maximum (in C1CCOC1) of 502 nm, an emission maximum (in CC#N) of 511 nm and an emission maximum (in CCO) of 508 nm. The emission maximum (in CN(C)C=O) was 509 nm, the emission maximum (in CO) was 493 nm and the emission maximum (in CS(C)=O) was 508 nm. The emission maximum (in Cc1ccccc1) was 529 nm, the emission maximum (in ClC(Cl)Cl) was 580 nm and the emission maximum (in ClCCl) was 605 nm.
With `COc1cc(OC)c2cc(C#N)c(=N)oc2c1` the emission maximum (in ClCCl) was 428 nm.
Molecule `Cc1ccc2c(c1)c1cc(Br)ccc1n2-c1c(C#N)c(-n2c3ccc(Br)cc3c3cc(Br)ccc32)c(-n2c3ccc(Br)cc3c3cc(Br)ccc32)c(C#N)c1-n1c2ccc(Br)cc2c2cc(Br)ccc21` has an emission maximum (in Cc1ccccc1) of 546 nm.
Molecule `COc1c2ccccc2c(OC)c2c1c1cccc(OC)c1n2C` has an emission maximum (in C1CCCCC1) of 418 nm, an emission maximum (in CC#N) of 433 nm and an emission maximum (in CO) of 429 nm. For the same molecule, the emission maximum (in ClCCl) was 431 nm.
With `COc1nc(Nc2ccc3c4c(cccc24)C(=O)c2ccccc2-3)nc(OC)n1` the emission maximum (in CC#N) was 554.02 nm, the emission maximum (in CC(C)=O) was 533.9 nm and the emission maximum (in CC(C)O) was 576.04 nm. It also gave an emission maximum (in CCCCOCCCC) of 516 nm, an emission maximum (in CCOC(C)=O) of 523.01 nm and an emission maximum (in CCOCC) of 520.02 nm. It also gave an emission maximum (in CO) of 586.85 nm, an emission maximum (in Cc1ccccc1) of 521.92 nm and an emission maximum (in Clc1ccccc1) of 526.87 nm. The emission maximum (in N#Cc1ccccc1) was 535.91 nm and the emission maximum (in O=C1CCCCC1) was 531.91 nm.
With `C#Cn1c(-c2cc(-c3nc4ccccc4n3C#C)cc(-c3nc4ccccc4n3C#C)c2)nc2ccccc21` the emission maximum (in C1CCOC1) was 386.5 nm.
Work on `c1ccc(-c2nc(-c3ccc(-c4ccc(N(c5ccccc5)c5ccccc5)cc4)cn3)oc2-c2ccccc2)cc1` yielded an emission maximum (in C1CCOC1) of 458 nm, an emission maximum (in C1COCCO1) of 454 nm and an emission maximum (in CC#N) of 507 nm. For the same molecule, the emission maximum (in CC(C)=O) was 495 nm, the emission maximum (in CC(C)OC(C)C) was 434 nm and the emission maximum (in CCCCCC) was 399 nm. The emission maximum (in CCCCOCCCC) was 431 nm, the emission maximum (in CCN(CC)CC) was 422 nm and the emission maximum (in CCOC(C)=O) was 456 nm. For the same molecule, the emission maximum (in CCOCC) was 440 nm, the emission maximum (in Cc1ccccc1) was 435 nm and the emission maximum (in c1ccccc1) was 438 nm.
In the case of `c1ccc2cc(-n3c4ccccc4c4ccccc43)ccc2c1`, the emission maximum (in C1CCCCC1) is reported as 362 nm, the emission maximum (in C1CCOC1) is reported as 374 nm and the emission maximum (in CC#N) is reported as 388 nm. For the same molecule, the emission maximum (in CCO) was 379 nm, the emission maximum (in CCOC(C)=O) was 372 nm and the emission maximum (in CCOCC) was 368 nm. It also gave an emission maximum (in CO) of 382 nm, an emission maximum (in Cc1ccccc1) of 364 nm and an emission maximum (in ClC(Cl)Cl) of 376 nm.
With `O=C1c2ccc3c4ccc5c6c(ccc(c7ccc(c2c37)C(=O)N1c1ccc(Cl)cc1)c64)C(=O)N(c1ccc(Cl)cc1)C5=O` the emission maximum (in CN(C)C=O) was 534 nm.
In the case of `CN(C)c1ccc(/C=C/c2ncccn2)cc1`, the emission maximum (in ClCCl) is reported as 472 nm.
`c1ccc(-c2nc(-c3cccs3)[nH]c2-c2ccccc2)cc1` showed an emission maximum (in CC#N) of 391 nm.
Work on `CCOC(=O)CCCCCn1c2ccccc2c(=O)c2cc3c(cc21)c(=O)c1cc(I)ccc1n3CCCCCC(=O)OCC` yielded an emission maximum (in CO) of 558 nm.
For `O=c1c2cc(Cl)ccc2[nH]c2ccc(COO)cc12`, the emission maximum (in O) was 425 nm.
`Cc1cccc(-c2[nH]c(=O)n3c2-c2ccccc2C3=O)c1O` gave an emission maximum (in CC#N) of 480 nm, an emission maximum (in CO) of 496 nm and an emission maximum (in ClCCl) of 473 nm.
`CCN(CC)c1ccc(/N=N/c2nc3ccc([N+](=O)[O-])cc3s2)cc1` gave an emission maximum (in CC#N) of 607 nm and an emission maximum (in ClCCl) of 603 nm.
With `CCCCn1c(-c2ccc(-c3nnc(-c4ccc5ccccc5c4)o3)cc2)nc2c3ccccc3c3ccccc3c21` the emission maximum (in ClCCl) was 448 nm.
In the case of `O=P1(c2ccccc2)C(c2ccc(N(c3ccccc3)c3ccccc3)cc2)=Cc2cc3ccccc3cc21` (centres undefined), the emission maximum (in C1CCOC1) is reported as 511 nm, the emission maximum (in CC#N) is reported as 561 nm and the emission maximum (in CN(C)C=O) is reported as 551 nm. It also gave an emission maximum (in Cc1ccccc1) of 478 nm, an emission maximum (in ClC(Cl)Cl) of 516 nm and an emission maximum (in ClCCl) of 533 nm.
With `CC(=O)c1nc(-c2ccc(N(C)C)cc2)oc1C` the emission maximum (in CC#N) was 376 nm, the emission maximum (in CCO) was 377 nm and the emission maximum (in CCOC(C)=O) was 370 nm. The emission maximum (in CCOCC) was 368 nm and the emission maximum (in ClCCl) was 373 nm.
`COc1cc2c(cc1OC)C1=C[C@H](c3ccc(C)cc3)C3(C(C#N)=C(C#N)N1CC2)c1cc(Cl)ccc1-c1ccc(Cl)cc13` gave an emission maximum (in ClCCl) of 402 nm.
In the case of `Cc1cc(C)c(C2=C(c3c(C)sc(-c4ccc(-c5nc(-c6ccccc6)c(-c6ccccc6)[nH]5)cc4)c3C)C(F)(F)C(F)(F)C2(F)F)s1`, the emission maximum (in C1CCOC1) is reported as 393 nm.
For `c1ccc(-c2nc(-c3ccccc3)nc(-c3ccc(-n4c5ccccc5c5cc6c(cc54)C4c5ccccc5C6c5ccccc54)cc3)n2)cc1`, the emission maximum (in Cc1ccccc1) was 432 nm and the emission maximum (in O=P(c1ccccc1)(c1ccccc1)c1ccccc1Oc1ccccc1P(=O)(c1ccccc1)c1ccccc1) was 457 nm.
Work on `O=c1c2cc3[nH]c4c(S(=O)(=O)O)cc(S(=O)(=O)O)cc4c(=O)c3cc2[nH]c2c(S(=O)(=O)O)cc(S(=O)(=O)O)cc12` yielded an emission maximum (in O) of 550 nm.
With `COCc1ncc(-c2c3ccccc3c(-c3cnc(COC)nc3)c3ccccc23)cn1` the emission maximum (in CCO) was 420 nm and the emission maximum (in ClCCl) was 420 nm.
Work on `Cc1cc(C2(c3cc(C)c(O)c(Br)c3)OS(=O)(=O)c3ccccc32)cc(Br)c1O` yielded an emission maximum (in C1CCOC1) of 492 nm, an emission maximum (in C1COCCO1) of 450 nm and an emission maximum (in CC#N) of 497 nm. It also gave an emission maximum (in CC(C)(C)O) of 473 nm, an emission maximum (in CC(C)=O) of 490 nm and an emission maximum (in CC(C)O) of 498 nm. For the same molecule, the emission maximum (in CCCCCO) was 485 nm, the emission maximum (in CCCO) was 505 nm and the emission maximum (in CCO) was 507 nm. It also gave an emission maximum (in CCOC(C)=O) of 478 nm, an emission maximum (in CCOCC) of 476 nm and an emission maximum (in CO) of 502 nm.
`Cc1ccc2c(c1)nc1c(=O)n(C)c(=O)nc-1n2C` showed an emission maximum (in CC#N) of 532 nm.
